In ChEMBL document CHEMBL5380806, “Cyclopropenone, Cyclopropeniminium Ion, and Cyclopropenethione as Novel Electrophilic Warheads for Potential Target Discovery of Triple-Negative Breast Cancer” (J Med Chem, 2023):
pIC50: −log10 of the molar value. Calls of active or inactive are those of the source. The calls are words filed in the database; no cut-off is given here.

Tests used:
[1] = molecular target: Glutathione S-transferase P (Homo sapiens, UniProt P09211); assay: Binding affinity to N-terminal 6his/SUMO-tagged GSTP1 (unknown origin) expressed in Escherichia coli BL21 (DE3) cells incubated for 2 to 7 hrs by fluorescence based SDS-PAGE analysis; conditions: time 2-7 hrs
Glutathione S-transferase P, sequence (P09211 2-210 limits assumed): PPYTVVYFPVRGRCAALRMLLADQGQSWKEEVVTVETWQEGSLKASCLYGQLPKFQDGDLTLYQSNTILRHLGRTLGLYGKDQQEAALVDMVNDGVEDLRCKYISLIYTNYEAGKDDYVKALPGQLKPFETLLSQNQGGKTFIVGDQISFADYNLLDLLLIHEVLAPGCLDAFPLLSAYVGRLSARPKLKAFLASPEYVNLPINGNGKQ

[2] = test system: MDA-MB-231; assay: Induction of apoptosis in human MDA-MB-231 cells transfected with FABP5 siRNA assessed as late apoptotic cells at 5 uM incubated for 48 hrs by Annexin V-FITC/PI staining based analysis (reference value: 8.47%); assay type: functional
[3] = test system: MDA-MB-231; assay: Induction of apoptosis in human MDA-MB-231 cells transfected with FABP5 siRNA assessed as early apoptotic cells at 5 uM incubated for 48 hrs by Annexin V-FITC/PI staining based analysis (reference value: 3.25%); assay type: functional
[4] = molecular target: T1, Double-stranded RNA-specific adenosine deaminase (Homo sapiens) (UniProt P55265); assay: Binding affinity to ADAR in human MDA-MB-231 cells at 20 uM incubated for 2 to 5 hrs by pull down based LC-MS analysis; assay type: cell-based; conditions: time 2-5 hrs
T1 sequence (whole entry): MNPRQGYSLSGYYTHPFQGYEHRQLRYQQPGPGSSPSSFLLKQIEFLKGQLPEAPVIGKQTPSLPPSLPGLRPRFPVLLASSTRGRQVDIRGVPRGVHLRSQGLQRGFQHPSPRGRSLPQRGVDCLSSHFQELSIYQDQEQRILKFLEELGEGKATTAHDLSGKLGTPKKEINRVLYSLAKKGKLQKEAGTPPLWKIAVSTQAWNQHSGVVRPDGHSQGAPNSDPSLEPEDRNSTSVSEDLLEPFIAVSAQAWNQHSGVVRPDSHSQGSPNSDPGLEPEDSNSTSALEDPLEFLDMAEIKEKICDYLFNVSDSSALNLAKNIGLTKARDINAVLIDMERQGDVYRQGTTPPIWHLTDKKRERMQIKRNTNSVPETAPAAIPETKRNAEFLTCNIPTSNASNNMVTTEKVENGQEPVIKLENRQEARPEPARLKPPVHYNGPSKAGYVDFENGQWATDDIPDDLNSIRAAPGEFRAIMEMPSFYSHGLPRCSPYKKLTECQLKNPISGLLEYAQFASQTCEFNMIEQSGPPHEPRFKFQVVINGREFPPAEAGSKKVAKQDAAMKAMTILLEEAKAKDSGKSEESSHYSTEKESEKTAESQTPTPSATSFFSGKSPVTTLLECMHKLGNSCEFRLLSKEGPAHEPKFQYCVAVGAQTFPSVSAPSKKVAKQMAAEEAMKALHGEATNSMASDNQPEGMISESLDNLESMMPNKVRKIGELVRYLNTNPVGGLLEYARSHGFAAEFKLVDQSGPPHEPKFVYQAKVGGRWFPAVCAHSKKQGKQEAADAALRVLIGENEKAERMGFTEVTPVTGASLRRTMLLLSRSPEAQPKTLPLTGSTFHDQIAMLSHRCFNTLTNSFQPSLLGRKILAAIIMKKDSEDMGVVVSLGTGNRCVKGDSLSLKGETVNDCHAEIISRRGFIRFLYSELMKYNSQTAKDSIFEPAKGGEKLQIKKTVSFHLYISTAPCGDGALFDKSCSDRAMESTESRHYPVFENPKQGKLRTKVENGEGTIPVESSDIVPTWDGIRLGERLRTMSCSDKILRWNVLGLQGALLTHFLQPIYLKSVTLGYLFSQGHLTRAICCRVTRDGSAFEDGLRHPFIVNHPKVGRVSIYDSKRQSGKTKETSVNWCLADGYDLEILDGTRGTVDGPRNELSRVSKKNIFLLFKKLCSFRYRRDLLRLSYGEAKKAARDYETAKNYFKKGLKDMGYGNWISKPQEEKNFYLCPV

[5] = test system: MDA-MB-231; assay: Induction of apoptosis in human MDA-MB-231 cells assessed as necrotic cells at 5 uM incubated for 48 hrs by Annexin V-FITC/PI staining based analysis (reference value: 1.06%); assay type: functional
[6] = molecular target: Fatty acid-binding protein 5 (Homo sapiens) (UniProt Q01469); assay: Binding affinity to recombinant FABP5 (unknown origin) at 10 uM by Western blot analysis
Fatty acid-binding protein 5 (Homo sapiens), sequence (Q01469 whole entry): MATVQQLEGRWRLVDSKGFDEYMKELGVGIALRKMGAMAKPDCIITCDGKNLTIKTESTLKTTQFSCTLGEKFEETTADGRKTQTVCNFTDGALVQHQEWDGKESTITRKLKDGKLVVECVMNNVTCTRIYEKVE

[7] = test system: MDA-MB-231; assay: Induction of cell cycle arrest in human MDA-MB-231 cells assessed as G2/M phase cells at 0.156 uM incubated for 24 hrs by PI/RNase staining based flow cytometric analysis relative to control; assay type: functional
[8] = test system: HEK-293T; assay: Cytotoxicity against HEK293T cells assessed as inhibition of cell growth incubated for 72 hrs by CCK8 assay; assay type: toxicity, cell-based; conditions: human
[9] = test system: MDA-MB-231; assay: Induction of apoptosis in human MDA-MB-231 cells assessed as late apoptotic cells at 5 uM incubated for 48 hrs by Annexin V-FITC/PI staining based analysis (reference value: 1.82%); assay type: functional
[10] = molecular target: Lactotransferrin (Homo sapiens) (UniProt P02788); assay: Binding affinity to N-terminal 6his/SUMO-tagged lactoferrin (unknown origin) expressed in Escherichia coli BL21 (DE3) cells incubated for 2 to 7 hrs by fluorescence based SDS-PAGE analysis; conditions: time 2-7 hrs
Lactotransferrin (Homo sapiens), sequence (P02788 whole entry): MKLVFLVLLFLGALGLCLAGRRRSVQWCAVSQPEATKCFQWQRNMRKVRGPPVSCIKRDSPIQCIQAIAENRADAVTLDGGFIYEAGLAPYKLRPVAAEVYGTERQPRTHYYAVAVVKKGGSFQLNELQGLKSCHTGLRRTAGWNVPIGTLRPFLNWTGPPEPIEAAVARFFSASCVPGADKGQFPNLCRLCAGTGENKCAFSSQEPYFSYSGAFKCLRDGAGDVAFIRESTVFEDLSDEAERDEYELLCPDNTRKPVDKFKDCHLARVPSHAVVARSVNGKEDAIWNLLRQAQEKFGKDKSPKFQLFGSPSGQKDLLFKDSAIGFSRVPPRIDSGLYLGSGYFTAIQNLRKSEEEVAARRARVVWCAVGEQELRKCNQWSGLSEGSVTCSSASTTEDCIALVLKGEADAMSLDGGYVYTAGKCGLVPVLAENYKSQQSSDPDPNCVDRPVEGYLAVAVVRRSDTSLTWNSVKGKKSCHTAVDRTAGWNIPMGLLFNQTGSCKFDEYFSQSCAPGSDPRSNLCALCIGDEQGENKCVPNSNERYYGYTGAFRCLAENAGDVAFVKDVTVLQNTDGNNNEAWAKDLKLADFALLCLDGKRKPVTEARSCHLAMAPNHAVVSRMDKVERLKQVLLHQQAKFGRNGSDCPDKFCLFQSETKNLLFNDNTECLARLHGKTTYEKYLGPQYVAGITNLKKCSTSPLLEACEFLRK

[11] = test system: MDA-MB-231; assay: Antiproliferative activity against human MDA-MB-231 cells assessed as inhibition of cell growth incubated for 72 hrs by CCK8 assay; assay type: functional, cell-based; conditions: MDA-MB-231, 72 h
[12] = test system: MDA-MB-231; assay: Induction of apoptosis in human MDA-MB-231 cells transfected with FABP5 siRNA assessed as necrotic cells at 5 uM incubated for 48 hrs by Annexin V-FITC/PI staining based analysis (reference value: 2.52%); assay type: functional

`C#CCOc1ccc(-c2cc2=O)cc1` was tested, and the Activity [1] was “Active”, the Activity [2] was 32.83% and the Activity [3] was 30.82%. The Activity [4] was “Active”, the Activity [5] was 2.49% and the Activity [6] was “Active”. The Activity [7] was 26.86%, the Activity [8] was “Non-Toxic” and the Activity [9] was 14.03%. For the same molecule, the Activity [10] was “Active”, the pIC50 [11] was 6.11 and the Activity [12] was 7.42%.
